{"source": "patent US20040161820A1", "about": "(priority 2001, published 2004)", "assay_type_in_all_cases": "cell-based", "key": {"SA-01": {"system": "SA-01", "test": "organism not typed"}, "Fermix": {"system": "Fermix", "test": "MIC of G418 in liquid medium", "settings": "industrial strain Fermix", "protocol": "(§1) Bacterial strains used as plasmid hosts included: Escherichia coli DH5: F'lendA1 hsdr17 (rk^−mk^−) supE44 thi-1 recA1 gyrA(Nal^r) relA1 (lacZYA-argF)U169 deoR (80dlac (lacZ)M15) (Sambrook et al., 1989). Yeast were tested in solid medium YPD and eight industrial strains, from laboratory and seven Amazonian strains were sensitive to 200 μg/ml and 500 μg/ml of G418. Afterwards, the minimum concentration of antibiotic that inhibits the growth (MIC) in liquid medium was determined (Table 1)."}, "L69": {"system": "L69", "test": "MIC of G418 in liquid medium", "settings": "wild-type Amazon strain L69", "protocol": "as §1"}, "[1]": {"system": "Montrachet de la Champagne", "test": "MIC of G418 in liquid medium", "settings": "industrial strain Montrachet de la Champagne", "protocol": "as §1"}, "L105": {"system": "L105", "test": "MIC of G418 in liquid medium", "settings": "industrial strain L105", "protocol": "as §1"}, "S288C": {"system": "S288C", "test": "MIC of G418 in liquid medium", "settings": "Saccharomyces cerevisiae, strain S288C", "protocol": "as §1"}, "L136": {"system": "L136", "test": "MIC of G418 in liquid medium", "settings": "wild-type Amazon strain L136", "protocol": "as §1"}, "L103": {"system": "L103", "test": "MIC of G418 in liquid medium", "settings": "wild-type Amazon strain L103", "protocol": "as §1"}, "L151": {"system": "L151", "test": "MIC of G418 in liquid medium", "settings": "wild-type Amazon strain L151", "protocol": "as §1"}, "PE-2": {"system": "PE-2", "test": "MIC of G418 in liquid medium", "settings": "industrial strain PE-2", "protocol": "as §1"}, "CR-01": {"system": "CR-01", "test": "MIC of G418 in liquid medium", "settings": "industrial strain CR-01", "protocol": "as §1"}, "L101": {"system": "L101", "test": "MIC of G418 in liquid medium", "settings": "wild-type Amazon strain L101", "protocol": "as §1"}, "L77": {"system": "L77", "test": "MIC of G418 in liquid medium", "settings": "wild-type Amazon strain L77", "protocol": "as §1"}, "BG 01": {"system": "BG 01", "test": "MIC of G418 in liquid medium", "settings": "industrial strain BG 01", "protocol": "as §1"}, "L106": {"system": "L106", "test": "MIC of G418 in liquid medium", "settings": "industrial strain L106", "protocol": "as §1"}, "YPH252": {"system": "YPH252", "test": "MIC of G418 in liquid medium", "settings": "Saccharomyces cerevisiae, strain YPH252", "protocol": "as §1"}, "L110": {"system": "L110", "test": "MIC of G418 in liquid medium", "settings": "wild-type Amazon strain L110", "protocol": "as §1"}}}
{"smiles": "CN[C@@H]1[C@@H](O)[C@@H](O[C@@H]2[C@@H](O)[C@H](O[C@H]3O[C@H]([C@@H](C)O)[C@@H](O)[C@H](O)[C@H]3N)[C@@H](N)C[C@H]2N)OC[C@]1(C)O", "note": "[G418, geneticin]", "values": [{"measurement": "MIC", "setting": "SA-01", "value": "≤ 50", "unit": "µg/mL"}, {"measurement": "MIC", "setting": "Fermix", "value": "≤ 50", "unit": "µg/mL"}, {"measurement": "MIC", "setting": "L69", "value": 100, "unit": "µg/mL"}, {"measurement": "MIC", "setting": "[1]", "value": "≦50 μg/ml"}, {"measurement": "MIC", "setting": "L105", "value": 25, "unit": "µg/mL"}, {"measurement": "MIC", "setting": "S288C", "value": 100, "unit": "µg/mL"}, {"measurement": "MIC", "setting": "L136", "value": 25, "unit": "µg/mL"}, {"measurement": "MIC", "setting": "L103", "value": 150, "unit": "µg/mL"}, {"measurement": "MIC", "setting": "L151", "value": 12.5, "unit": "µg/mL"}, {"measurement": "MIC", "setting": "PE-2", "value": "≤ 50", "unit": "µg/mL"}, {"measurement": "MIC", "setting": "CR-01", "value": "≤ 50", "unit": "µg/mL"}, {"measurement": "MIC", "setting": "L101", "value": 100, "unit": "µg/mL"}, {"measurement": "MIC", "setting": "L77", "value": 25, "unit": "µg/mL"}, {"measurement": "MIC", "setting": "BG 01", "value": "≤ 50", "unit": "µg/mL"}, {"measurement": "MIC", "setting": "L106", "value": 25, "unit": "µg/mL"}, {"measurement": "MIC", "setting": "YPH252", "value": "≤ 50", "unit": "µg/mL"}, {"measurement": "MIC", "setting": "L110", "value": 150, "unit": "µg/mL"}]}
